Assay: gradient 5% acetonitrile 3 min, to 50% in 2 min, to 85% in 15 min, held 3 min, 100 µL/min
Settings: column: Zorbax Extend-C18 2.1 x 50 mm; eluents: water / acetonitrile, 0.1% formic acid
In short: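 Using water and acetonitrile that each contained 0.1% formic acid, mixtures of ~100 pure standards were separated at 100 μL/min on a Zorbax Extend-C18 column (2.1 × 50 mm, 1.8 μm). The HPLC fed a quadrupole time-of-flight mass spectrometer working in positive and negative ionization mode, with dead and dwell volumes of 40 μL and 900 μL. Data were acquired over 3 months. Retention time was read from computationally picked adduct peaks after manual inspection of each.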

Compound	RP-LC retention time
Cc1sc(NC(=O)c2ccc(F)cc2)nc1-c1ccc2c(c1)NC(=O)CO2	872 s
O=C(Cn1nc(N2CCCC2)c2ccccc2c1=O)Nc1ccc(F)c(F)c1	950 s
Cc1cc(C)cc(S(=O)(=O)N2CCCN(c3ccc(=O)n(-c4ccccc4)n3)CC2)c1	901 s
CCn1c(=O)sc2cc(S(=O)(=O)N3CCC(C(=O)Nc4ccc(F)cc4)CC3)ccc21	917 s
Cn1c(N2CCC(C(=O)NC3CCN(Cc4ccccc4)CC3)CC2)cc(=O)n(C)c1=O	578 s
Cc1ccc(C)c(Cn2nnc(C(=O)O)c2C)c1	783 s
CCCOc1ccc(CNC(=O)c2cnc(OC)nc2)cc1	803 s
O=S(=O)(c1ccccc1Cl)N1CC(COc2ccncc2)C2(CCOCC2)C1 (configuration not stated)	574 s
O=c1c2sccc2n(Cc2nc(-c3cccc(Br)c3)no2)c(=O)n1Cc1ccccc1	1110 s
CCn1cnnc1C1CCCCN1S(=O)(=O)c1cccc(F)c1 (configuration not stated)	716 s
O=C(c1ccc(Cl)cc1)N1CCC2(C1)C(=O)Nc1ccccc12 (configuration not stated)	765 s
O=C(c1cn(-c2ccc(-c3nc(C4CC4)no3)cn2)cn1)N1CCSCC1	819 s
Cc1nc(C)c(C(=O)N2CCC(Cc3noc(C4CC4)n3)C2)s1 (configuration not stated)	664 s
Cc1ccc2nc(NC(=O)CN3CCc4nc(NC(=O)C5CC5)sc4C3)sc2c1	600 s
CN1c2cc(Cl)ccc2C(=O)NC12CCN(C(=O)NCc1ccc(F)cc1)CC2	820 s
O=C(c1ccc(F)cc1)N1CCCN(c2nnc3ccc(Cl)cn23)CC1	689 s
Cc1ccc(CNC(=O)C2(C)CCN(S(=O)(=O)c3ccccc3)CC2)cc1	925 s
CC(C)n1nnc2cc(S(=O)(=O)N3CCCC(C(=O)N4CCCCCC4)C3)ccc21 (configuration not stated)	886 s
Cn1cnnc1SCCNC(=O)c1cc(-c2ccc(F)cc2)c[nH]1	659 s
CN(C)c1cccc(C(=O)N2CCN(C(=O)c3nnn4c3COC(c3ccc(Cl)cc3)C4)CC2)c1 (configuration not stated)	881 s
CO[C@H]1CN(C(C)C)[C@H]1C1CCN(C(=O)C2CCC2)CC1	574 s
CCC(=O)Nc1c(C)noc1/C=C\c1ccc(S(=O)(=O)N2CCN(c3ccccn3)CC2)cc1	646 s
CCC(C)n1c(=O)c2ccccc2n(Cc2nc(-c3cc(OC)cc(OC)c3)no2)c1=O (configuration not stated)	1180 s

Compound	RP-LC retention time
Cc1ccc(Cn2cc(-c3ccncc3)cc2C(=O)N2CCN(CC(C)C)CC2)cc1	582 s
Cc1ccc(C)c(C(=O)Nc2cc(-c3cccnc3)no2)c1	585 s
O=C(Cc1c(F)cccc1Cl)Nc1cnn(-c2ncc(N3CCCC3)cn2)c1	771 s
Cc1nc(N2CCCC2)c2c(C(=O)Nc3ccc(C)c(C)c3)c(C)oc2n1	830 s
CC(C)Oc1ccc(CNC(=O)c2nnc(-c3ccc(S(=O)(=O)N4CCOCC4)cc3)o2)cc1	915 s
CC(C)(C)c1ccc(NC(=O)NCCN2CCN(S(C)(=O)=O)CC2)cc1	606 s
CCCn1c(CCNC(=O)c2ccc(C)c(F)c2)nc2cccnc21	695 s
Cc1nn(-c2nc3ccccc3[nH]2)c2c1C(=O)CC(c1ccccc1)C2 (configuration not stated)	990 s
CCC(C)C(=O)NC1CCN(C2=NS(=O)(=O)C(c3ccccc3)=C2C)CC1 (configuration not stated)	752 s
Cc1c(F)cccc1NC(=O)N(C)CC1CCOCC1	742 s
Cc1ccc2[nH]cc(CCNC(=O)C(C)n3c4ccccc4c4cnn(C)c(=O)c43)c2c1 (configuration not stated)	906 s
COc1ccc(C)cc1NS(=O)(=O)c1ccccc1-c1nc(-c2ccc(F)cc2)no1	1280 s
Cn1ncc2c(N3CCOCC3)nc(C(=O)NCCc3cccs3)nc21	710 s
Cc1cc(N2CCN(S(=O)(=O)c3ccc(F)cc3)CC2)nc(NC2CCCCC2)n1	797 s
O=C(Nc1ccc(N2CCCCS2(=O)=O)cc1)OCc1ccccc1	769 s
O=S(=O)(c1ccc(F)cc1)N1CCC2(CC1)NCCN=C2NCc1cccc(F)c1	691 s
Cc1cc(N2CCCCC2C)n2nc(-c3ccccc3)nc2n1 (configuration not stated)	966 s
CSc1ccc(Cl)c(C(=O)NCCc2cn(C)c3ncccc23)c1	724 s
Cc1ncoc1C(=O)N1CCC(c2noc(-c3cccnc3)n2)C1 (configuration not stated)	640 s
CCCCN(C)C(=O)Cn1c(CO)nc2ccccc21	589 s
CCOC(=O)c1cccc(NC2=NS(=O)(=O)C(c3ccc(OC)cc3)=C2C)c1	965 s
Cc1noc(C)c1CNC(=O)Cc1ccccc1F	696 s
Cc1nncn1C1CN(C(=O)Nc2ccc(Cl)cc2C(F)(F)F)C1	662 s

Compound	RP-LC retention time
CCn1nc(C)c(CCN(C)C(=O)Cn2nc3n(c2=O)CCC(N)CC3)c1C (configuration not stated)	515 s
Cc1cc(=O)n(CC(=O)Nc2cccc(C)c2C)c(N)n1	600 s
CC(NC(=O)c1ccccc1)c1nc(-c2ccc3oc(-c4ccccc4)nc3c2)no1 (configuration not stated)	1090 s
CC1CCN(C(=O)c2ccc3ncnc(N4CCCCC4)c3c2)CC1	638 s
N#Cc1cccc(CN2CCC(F)(F)C(CO)C2)c1 (configuration not stated)	551 s
CN(CC1CCOC1)C(=O)c1cccc(Br)c1 (configuration not stated)	718 s
CSc1ccc(CNC(=O)Cn2c(C)cc(-c3nnc(C4CC4)o3)c2C)cc1	816 s
CN1C(=O)c2ccccc2Oc2ccc(C(=O)NCc3ccccc3Cl)cc21	948 s
Cc1c(C(=O)NCCOc2ccc3c(c2)OCO3)cccc1[N+](=O)[O-]	778 s
O=C(Nc1ccc2c(c1)OCCO2)c1coc(NC(=O)C2CC2)n1	643 s
Cn1nc(C(=O)N2CCCC(C(=O)Nc3ccccc3)C2)c2c1CCN(C(=O)C(C)(C)C)C2 (configuration not stated)	745 s
CCOC(=O)c1ccc2c(c1)NCc1cccc(OC)c1O2	1030 s
COc1ccc(S(=O)(=O)NCCCn2ccnc2)cc1C(C)(C)C	589 s
O=C(Cn1nc(S(=O)(=O)c2ccccc2)ccc1=O)Nc1ccc2c(c1)OCO2	796 s
COC(=O)c1ccc(NC(=O)C(=O)NCC2CCN(C(=O)Oc3ccccc3)CC2)cc1	868 s
O=C(NCc1ccccc1)N1CCc2nc(-c3ccccc3)ncc2C1	848 s
Cc1ccc(-c2csc(Cc3nc(-c4ccccc4Cl)no3)n2)cc1	1280 s
Cc1ccc(-c2nc3cc(C)ccn3c2Nc2ccccc2C)cc1	770 s
CCCC(NC(=O)c1cccc(F)c1)C(=O)Nc1nc2ccccc2[nH]1 (configuration not stated)	693 s
O=C(Cn1nc2c(c1NC(=O)c1c(F)cccc1Cl)CSC2)NCc1ccco1	750 s
Cc1ccc(N2C(=O)N3CCc4c([nH]c5ccccc45)C3(C)C2=O)cc1 (configuration not stated)	1020 s

From the METLIN SMRT retention time set (Domingo-Almenara et al. 2019)
